Values quoted from earlier work as cited in patent US20230312573A1, “NOVEL SALTS, CRYSTALS, AND CO-CRYSTALS” (INTRA-CELLULAR THERAPIES, INC., priority 2021, published 2023).

Columns and labels:
[1] = target: H1 histaminergic receptor (Homo sapiens, UniProt P35367)
5-HT2C receptor = target: T1, 5-HT2C receptor (Homo sapiens, UniProt P28335)
T1 sequence (P28335 33-458): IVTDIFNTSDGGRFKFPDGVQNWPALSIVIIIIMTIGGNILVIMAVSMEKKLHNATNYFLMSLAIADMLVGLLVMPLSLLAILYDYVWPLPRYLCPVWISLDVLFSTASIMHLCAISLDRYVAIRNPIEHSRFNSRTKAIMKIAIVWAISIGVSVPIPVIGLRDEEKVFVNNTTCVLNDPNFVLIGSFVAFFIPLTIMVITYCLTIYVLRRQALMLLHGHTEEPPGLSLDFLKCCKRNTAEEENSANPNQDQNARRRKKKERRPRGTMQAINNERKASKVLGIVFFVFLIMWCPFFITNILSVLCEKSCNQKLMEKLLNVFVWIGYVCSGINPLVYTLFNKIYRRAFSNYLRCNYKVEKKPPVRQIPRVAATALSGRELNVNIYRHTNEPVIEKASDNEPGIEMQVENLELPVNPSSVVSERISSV

Sequence of H1 histaminergic receptor (P35367 whole entry): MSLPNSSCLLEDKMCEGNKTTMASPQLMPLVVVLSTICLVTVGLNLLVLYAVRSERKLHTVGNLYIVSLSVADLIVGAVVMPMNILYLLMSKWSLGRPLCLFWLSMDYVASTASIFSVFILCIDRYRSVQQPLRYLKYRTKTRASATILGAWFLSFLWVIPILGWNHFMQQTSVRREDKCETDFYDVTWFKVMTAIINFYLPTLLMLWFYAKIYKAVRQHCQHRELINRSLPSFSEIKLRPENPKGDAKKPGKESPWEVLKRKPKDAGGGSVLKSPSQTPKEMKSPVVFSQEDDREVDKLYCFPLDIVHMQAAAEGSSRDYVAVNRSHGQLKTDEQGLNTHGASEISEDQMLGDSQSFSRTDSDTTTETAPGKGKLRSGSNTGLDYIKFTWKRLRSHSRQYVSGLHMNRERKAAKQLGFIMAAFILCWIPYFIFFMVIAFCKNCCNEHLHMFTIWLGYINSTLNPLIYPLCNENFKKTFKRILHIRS

CN1CCN2c3c(cccc31)[C@@H]1CN(CCCC(=O)c3ccc(F)cc3)CC[C@@H]12 [Lumateperone, 1-(4-fluoro-phenyl)-4-((6bR,10aS)-3-methyl-2,3,6b,9,10,10a-hexahydro-1H,7H-pyrido[3′,4′:4,5]pyrrolo[1,2,3-de]quinoxalin-8-yl)-butan-1-one]
negligible binding: binding to H1 histaminergic receptors [1] | binding to 5-HT2C receptors (5-HT2C receptor) | binding to muscarinic receptors (muscarinic receptor)
